The text below walks through data of PMC4770311, “Discovery and Characterization of GSK2801, a Selective Chemical Probe for the Bromodomains BAZ2A and BAZ2B” (Journal of Medicinal Chemistry, 2015).

One assay concerns BRD2. Also noted: method as in PMID 21804994, PMID 22136404. The following applies: reported activity; read-out: TR-FRET assay: BRD2; cited from earlier work.
The target of assay [1] is T1, BAZ2A (Homo sapiens, UniProt Q9UIF9).
T1 construct: Recombinant BAZ2A and BAZ2B bromodomains were expressed in; made in house; host or cells: E. coli
T1 sequence (Q9UIF9 1793-1897 limits assumed): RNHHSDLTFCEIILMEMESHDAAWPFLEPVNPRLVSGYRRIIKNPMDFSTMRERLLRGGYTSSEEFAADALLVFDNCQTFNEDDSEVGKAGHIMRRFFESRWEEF
In words: AlphaScreen assay BAZ2A. It counts as binding. As to conditions: average of three replicates ± SEM. On the procedure: AlphaScreen: AlphaScreen was performed as described previously 10, with minor modifications from the manufacturers protocol (PerkinElmer, USA). Briefly, all reagents were diluted in the recommended buffer (50 mM HEPES, 100 mM NaCl, 0.1% BSA; pH = 7.4) supplemented with 0.05% CHAPS and allowed to equilibrate to room temperature prior to […]
Plates were sealed and incubated at room temperature for 30 min. 4 μL of streptavidin-coated donor beads (10ug/mL final) and 4 μL of nickel chelate acceptor beads (10 μg/ml final) were then added under low light conditions. Plates were foil sealed to protect from light, incubated at room temperature for 60 min and read on a PHERAstar FS plate reader (BMG Labtech, Germany) using an AlphaScreen 680 excitation/570 emission filter set.
Fragments were dissolved in ethylene glycol to overcome sensitivity of the bromodomain assay to DMSO and allow compounds to be screened at mM concentrations. IC50 […]
measurements were taken over a 12 point 1:2 serial dilution of compound. IC50s were calculated in GraphPad Prism 5 (GraphPad Software, USA). […]
In general terms: Bead proximity is the source of the signal in Alpha formats.

Another assay deals with BRD4. Also noted: method as in PMID 21804994, PMID 22136404. The following applies: reported activity; read-out: TR-FRET assay: BRD4; cited from earlier work.
The target of assay [2] is T2, BRD9 (Homo sapiens, UniProt Q9H8M2).
T2 construct: endogenous in cells; host or cells: HuT78
T2 sequence (Q9H8M2 1-597): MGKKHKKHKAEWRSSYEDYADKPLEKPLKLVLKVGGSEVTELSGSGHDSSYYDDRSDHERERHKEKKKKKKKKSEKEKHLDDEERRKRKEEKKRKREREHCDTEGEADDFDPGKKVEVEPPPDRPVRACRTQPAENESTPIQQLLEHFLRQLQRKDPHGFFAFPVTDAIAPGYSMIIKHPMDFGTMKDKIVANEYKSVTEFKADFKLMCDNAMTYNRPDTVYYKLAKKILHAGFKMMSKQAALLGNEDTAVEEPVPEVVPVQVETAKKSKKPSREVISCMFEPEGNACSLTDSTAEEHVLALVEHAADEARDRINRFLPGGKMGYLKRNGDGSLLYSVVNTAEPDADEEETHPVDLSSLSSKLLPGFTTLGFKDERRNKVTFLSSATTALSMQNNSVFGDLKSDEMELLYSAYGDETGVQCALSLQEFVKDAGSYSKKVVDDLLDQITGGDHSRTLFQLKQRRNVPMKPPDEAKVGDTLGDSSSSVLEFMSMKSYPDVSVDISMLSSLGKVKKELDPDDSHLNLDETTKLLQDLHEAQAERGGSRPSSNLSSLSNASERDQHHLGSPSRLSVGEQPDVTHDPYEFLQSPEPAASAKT
In words: Chemoproteomic competition binding assay, endogenous BRD9. As to conditions: HuT78 extracts; competition with affinity matrix.

In assay [3] the target is BAZ2A (Homo sapiens, UniProt Q9UIF9). Kind of assay: Chemoproteomic competition binding assay, endogenous BAZ2A. As to conditions: up to a concentration of 50 μM; HuT78 extracts.
Target sequence in this assay (Q9UIF9 whole entry): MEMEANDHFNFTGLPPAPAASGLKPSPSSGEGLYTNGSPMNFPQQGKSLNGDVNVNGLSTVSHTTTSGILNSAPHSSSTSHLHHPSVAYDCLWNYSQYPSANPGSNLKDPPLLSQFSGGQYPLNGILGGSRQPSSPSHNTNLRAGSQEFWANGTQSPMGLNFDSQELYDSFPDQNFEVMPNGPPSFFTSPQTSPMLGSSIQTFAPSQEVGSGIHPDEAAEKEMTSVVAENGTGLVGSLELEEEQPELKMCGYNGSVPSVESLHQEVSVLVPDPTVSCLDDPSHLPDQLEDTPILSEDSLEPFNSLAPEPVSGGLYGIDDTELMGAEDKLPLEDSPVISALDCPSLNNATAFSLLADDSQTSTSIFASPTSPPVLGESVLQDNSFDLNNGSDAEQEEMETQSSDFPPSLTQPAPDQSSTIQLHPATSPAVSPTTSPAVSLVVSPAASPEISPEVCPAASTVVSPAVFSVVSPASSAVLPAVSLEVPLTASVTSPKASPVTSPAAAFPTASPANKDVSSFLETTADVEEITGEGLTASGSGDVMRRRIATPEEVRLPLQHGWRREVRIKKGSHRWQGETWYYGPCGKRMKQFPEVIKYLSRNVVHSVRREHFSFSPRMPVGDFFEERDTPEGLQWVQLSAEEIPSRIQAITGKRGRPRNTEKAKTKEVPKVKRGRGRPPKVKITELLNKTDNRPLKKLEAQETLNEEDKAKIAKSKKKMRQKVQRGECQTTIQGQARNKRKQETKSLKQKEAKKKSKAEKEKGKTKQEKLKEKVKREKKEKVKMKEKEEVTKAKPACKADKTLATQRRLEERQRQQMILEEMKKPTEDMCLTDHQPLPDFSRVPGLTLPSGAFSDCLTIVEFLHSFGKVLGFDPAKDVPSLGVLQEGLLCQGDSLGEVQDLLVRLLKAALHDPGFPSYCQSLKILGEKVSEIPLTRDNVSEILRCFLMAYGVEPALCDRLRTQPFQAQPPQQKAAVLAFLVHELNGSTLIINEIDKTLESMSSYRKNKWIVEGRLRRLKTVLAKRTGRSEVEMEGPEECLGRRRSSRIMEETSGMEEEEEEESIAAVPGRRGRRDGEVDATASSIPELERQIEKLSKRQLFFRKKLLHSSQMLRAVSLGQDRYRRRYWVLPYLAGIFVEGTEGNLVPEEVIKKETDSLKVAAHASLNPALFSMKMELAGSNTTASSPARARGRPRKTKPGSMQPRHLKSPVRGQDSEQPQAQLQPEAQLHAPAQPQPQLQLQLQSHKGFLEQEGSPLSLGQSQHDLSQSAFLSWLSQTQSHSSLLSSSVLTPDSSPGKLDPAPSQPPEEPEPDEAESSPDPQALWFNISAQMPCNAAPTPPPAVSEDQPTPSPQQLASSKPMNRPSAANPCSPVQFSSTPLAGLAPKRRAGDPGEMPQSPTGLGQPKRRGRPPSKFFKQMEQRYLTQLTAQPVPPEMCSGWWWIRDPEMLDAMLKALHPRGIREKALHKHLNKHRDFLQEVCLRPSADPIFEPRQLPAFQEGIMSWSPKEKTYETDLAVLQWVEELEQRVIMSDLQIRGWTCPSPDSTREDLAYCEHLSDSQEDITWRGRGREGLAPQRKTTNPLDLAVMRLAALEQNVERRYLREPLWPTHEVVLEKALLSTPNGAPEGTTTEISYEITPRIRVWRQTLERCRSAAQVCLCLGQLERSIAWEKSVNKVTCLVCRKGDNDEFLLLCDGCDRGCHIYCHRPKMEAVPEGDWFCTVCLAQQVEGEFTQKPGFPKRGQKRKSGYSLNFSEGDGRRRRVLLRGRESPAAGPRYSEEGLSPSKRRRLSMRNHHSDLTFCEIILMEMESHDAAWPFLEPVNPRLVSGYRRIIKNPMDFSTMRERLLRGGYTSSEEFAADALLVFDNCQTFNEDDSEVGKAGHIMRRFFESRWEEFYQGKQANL
In another assay the target is BAZ2B (Homo sapiens, UniProt Q9UIF8). Kind of assay: Chemoproteomic competition binding assay, endogenous BAZ2B. The following applies: up to a concentration of 50 μM; HuT78 extracts.
The test system of assay [4] is panel of biotin-labeled bromodomains. The following applies: two concentrations, 0.2 and 1.0 μM. On the procedure: measurements were taken over a 12 point 1:2 serial dilution of compound. IC50s were calculated in GraphPad Prism 5 (GraphPad Software, USA).
Biolayer interference assays. BAZ2A and BAZ2B were expressed in frame with a C- […]
of a single biotin using the biotin ligase (BirA) which has been co-expressed in E. coli using the co-expression vector BL21(DE3)-R3-pRARE2-BirA. Cells were grown in the presence of 0.1 mM biotin and were lysed and purified using a similar procedure as described for the non-biotin labelled protein.
The biotin labelled BAZ2B and BAZ2A was immobilized on SuperStreptavidin BLI sensors.
BioLayer Interferometry (BLI) experiments were performed on a 16-channel ForteBio Octet […]
buffer. The reference sensors without attached bromodomain were used to subtract background binding to SuperStreptavidin sensors. Data were processed and analysed using ForteBio Analysis software.
Determination of PK profiles for GSK2801 after IP (intraperitoneal) and PO (oral) administrations to male CD-1 mice: These PK studies were performed by the DMPK […]
The IP and PO dosing solutions were prepared in 0.5%
Test system: CD-1 mice, 28-32g, male, N=18, purchased from SLAC Laboratory Animal Co.
LTD. The animals were given free access to food and water. A dose of 30 mg/kg (10 mL/kg) was used via intraperitoneal injection (N=9) and for oral dosing 30 mg/kg (10 mL/kg) via gavage (N=9). […]

Assay [5] addresses T3, BRD9 (Homo sapiens, UniProt Q9H8M2).
T3 construct: ITC experiments using the bromodomain of BRD9
Kind of assay: Isothermal titration calorimetry BRD9. It counts as binding. As to conditions: ITC. The protocol:
VP-ITC (MicroCal) at 15 °C.
reaction cell containing the inhibitors (15 µM). Integrated heat of the titrations after corrected
modifications from the manufacturers protocol (PerkinElmer, USA). Briefly, all reagents were
final) were then added under low light conditions. Plates were foil sealed to protect from […]

The target of another assay is SMARCA2 and 4. In words: Chemoproteomic competition binding assay, endogenous SMARCA2 and 4. The following applies: HuT78 extracts; likely indirect via BRD9 in BAF complex.

Chain of BAZ2B (Q9UIF8 whole entry): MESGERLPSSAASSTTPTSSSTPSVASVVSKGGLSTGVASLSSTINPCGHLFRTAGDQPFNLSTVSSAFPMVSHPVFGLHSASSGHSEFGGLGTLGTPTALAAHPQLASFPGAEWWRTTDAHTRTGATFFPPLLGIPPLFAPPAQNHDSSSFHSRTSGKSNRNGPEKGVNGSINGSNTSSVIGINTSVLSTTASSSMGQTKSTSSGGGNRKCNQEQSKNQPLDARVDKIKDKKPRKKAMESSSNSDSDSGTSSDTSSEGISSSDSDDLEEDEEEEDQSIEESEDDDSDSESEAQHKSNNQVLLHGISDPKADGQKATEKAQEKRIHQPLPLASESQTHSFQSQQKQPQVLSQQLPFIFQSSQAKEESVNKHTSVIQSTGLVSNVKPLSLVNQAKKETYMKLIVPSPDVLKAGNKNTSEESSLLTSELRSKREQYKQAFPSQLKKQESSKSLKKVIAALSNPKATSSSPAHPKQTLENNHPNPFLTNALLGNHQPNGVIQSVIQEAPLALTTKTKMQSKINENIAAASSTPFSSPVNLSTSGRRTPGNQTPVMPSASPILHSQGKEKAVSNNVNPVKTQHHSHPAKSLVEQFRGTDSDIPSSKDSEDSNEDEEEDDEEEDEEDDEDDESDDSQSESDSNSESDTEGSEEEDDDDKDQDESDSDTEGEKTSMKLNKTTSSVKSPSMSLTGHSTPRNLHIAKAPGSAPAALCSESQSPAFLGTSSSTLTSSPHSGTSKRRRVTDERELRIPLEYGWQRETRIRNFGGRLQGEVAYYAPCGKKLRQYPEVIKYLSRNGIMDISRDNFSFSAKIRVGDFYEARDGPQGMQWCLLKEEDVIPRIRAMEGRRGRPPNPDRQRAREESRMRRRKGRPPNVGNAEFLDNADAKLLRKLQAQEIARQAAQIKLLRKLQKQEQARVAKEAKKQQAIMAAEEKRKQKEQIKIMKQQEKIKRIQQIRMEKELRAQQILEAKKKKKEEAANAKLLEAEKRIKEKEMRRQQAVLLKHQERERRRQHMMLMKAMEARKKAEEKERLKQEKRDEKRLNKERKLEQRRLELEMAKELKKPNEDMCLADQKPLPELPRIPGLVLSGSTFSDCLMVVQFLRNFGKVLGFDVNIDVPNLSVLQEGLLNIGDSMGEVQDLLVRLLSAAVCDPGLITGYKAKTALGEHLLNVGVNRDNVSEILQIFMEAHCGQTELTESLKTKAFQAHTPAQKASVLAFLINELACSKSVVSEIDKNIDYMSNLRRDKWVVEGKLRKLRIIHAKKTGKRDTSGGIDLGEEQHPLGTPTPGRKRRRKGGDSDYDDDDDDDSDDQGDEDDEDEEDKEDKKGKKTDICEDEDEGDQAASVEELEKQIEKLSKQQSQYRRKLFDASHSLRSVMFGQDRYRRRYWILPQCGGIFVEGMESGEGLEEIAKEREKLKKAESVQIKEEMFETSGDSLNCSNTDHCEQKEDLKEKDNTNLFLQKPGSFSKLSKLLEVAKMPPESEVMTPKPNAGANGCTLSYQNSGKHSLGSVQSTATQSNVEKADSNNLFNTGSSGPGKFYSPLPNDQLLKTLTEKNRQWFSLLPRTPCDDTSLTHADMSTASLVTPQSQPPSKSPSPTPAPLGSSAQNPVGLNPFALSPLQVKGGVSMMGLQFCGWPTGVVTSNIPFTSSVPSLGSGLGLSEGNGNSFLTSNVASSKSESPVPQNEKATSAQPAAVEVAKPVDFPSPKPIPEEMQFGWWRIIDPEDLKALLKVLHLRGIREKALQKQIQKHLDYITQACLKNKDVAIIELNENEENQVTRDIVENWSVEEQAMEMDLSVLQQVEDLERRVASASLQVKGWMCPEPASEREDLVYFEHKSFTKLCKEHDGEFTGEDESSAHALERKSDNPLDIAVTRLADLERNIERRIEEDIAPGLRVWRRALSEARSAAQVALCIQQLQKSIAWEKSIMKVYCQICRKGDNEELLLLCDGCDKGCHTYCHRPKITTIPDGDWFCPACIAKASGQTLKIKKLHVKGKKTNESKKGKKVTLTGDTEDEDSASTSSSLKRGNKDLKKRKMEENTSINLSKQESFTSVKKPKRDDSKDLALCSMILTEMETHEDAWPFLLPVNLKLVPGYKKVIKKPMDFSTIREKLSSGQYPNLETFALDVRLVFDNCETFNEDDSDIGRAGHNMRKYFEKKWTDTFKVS

`CC(=O)c1cc(-c2ccccn2)c2ccccn12` [Compound 1]: the IC50 is 2 µM with BRD2, 1.5 ± 0.06 µM against BAZ2A [1] and 2 µM in the assay on BRD4.
In the case of `CCCOc1ccn2c(C(C)=O)cc(-c3cccc(OC)c3)c2c1` [Compound 23, 1-(1-(3-Methoxyphenyl)-7-propoxyindolizin-3-yl)ethanone], the “pKd BRD9” value at BRD9 [2] was found to be 4.5. Besides, the “binding to endogenous BAZ2A” value at BAZ2A [3] was “did not show any binding”. Further, the “binding to endogenous BAZ2B” value on BAZ2B is on record as “did not show any binding”. In addition, the “selectivity in BLI bromodomain panel” value in assay [4] was “inactive against BAZ2A/B and all other bromodomains except BRD9”. Moreover, on BRD9 [5], the equilibrium dissociation constant (Kd) was 1.04 µM and the “binding enthalpy change ΔH BRD9” value is given as −8.98 (± 0.152) kcal/mol. In addition, on SMARCA2 and 4, the “pKd SMARCA2 and 4” value came to 4.8.

In general, Kd refers to the constant that tells how readily two partners part at equilibrium.
